“And” between values parts separate entries of the source, which are not always exact repeats. Equal values may be shown once. Read-outs that look alike come from different tables or passages of the source. Ends that are not written are not given here.
How the values were obtained:
[1] = test system: Mycobacterium tuberculosis MDR (clinically isolated multidrug resistant strain); details: literature value ref Rastogi, et al., 1996 [55]; cited from earlier work
[2] = not given; remark: listed apart in the source
[3] = test system: Mycobacterium tuberculosis MDR (clinically isolated multidrug resistant strain); details: MDR (clinically isolated multidrug resistant strain, 24 h)

CC[C@@H](CO)NCCN[C@@H](CC)CO [Ethambutol]
MIC Mycobacterium tuberculosis MDR [1]: 20 µg/mL and 97 µM

CO[C@H]1/C=C/O[C@@]2(C)Oc3c(C)c(O)c4c(O)c(c(/C=N/N5CCN(C)CC5)c(O)c4c3C2=O)NC(=O)/C(C)=C\C=C\[C@H](C)[C@H](O)[C@@H](C)[C@@H](O)[C@@H](C)[C@H](OC(C)=O)[C@@H]1C [Rifampicin]
MIC Mycobacterium tuberculosis MDR [1]: 32 µg/mL and 38.9 µM

FWGALAKGALKLIGPGSLFSSFSKKD [Pin2 [GPG]]
maximum alpha-helical structure: 60%

FWGALAKGALKLIGSLFSSFSKKD [Pin2 [G]]
maximum alpha-helical structure: 60%
alpha-helical structure in absence of TFE [2]: 20%
MIC Mycobacterium tuberculosis MDR [3]: 18.7 µM

FWGALAKGALKLIPSLFSSFSKKD [Pin2, Pandinin 2, reference compound]
MIC Mycobacterium tuberculosis MDR [3]: 33.1 µM

FWGLKGLKGPGKFSKKL [Pin2 [17]]
MIC Mycobacterium tuberculosis MDR [3]: 14.8 ± 5.2 µM

FWGLKGLKKFSKKL [Pin2 [14]]
MIC Mycobacterium tuberculosis MDR [3]: 6 ± 1.8 µM

Reference: paper PMC4096598 (PLoS ONE, 2014)
